# Measured values from the supplement of paper PMC10307832.
# Tests used:
# Experiment in all cases: relative viability (nuclei count vs DMSO), 5 days (fraction); higher = more cells survive
# A-427 = system: A-427
# Method in brief: (§1)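 Dosing by pin tool came one day after lung cancer cell lines were seeded in 1536-well plates, using either one drug or a fixed anchor-drug dose plus five library-drug doses (not always all listed) in √10 steps. After 5 days, nuclei were counted on 4× images. Relative viability is treated-well nuclei count divided by vehicle-well nuclei count, and values are medians of duplicate plates.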
# COR-L 105 = system: COR-L 105
# Method in brief: as §1
# EKVX = system: EKVX
# Method in brief: as §1
# EMC-BAC-2 = system: EMC-BAC-2
# Method in brief: as §1
# EPLC-272H = system: EPLC-272H
# Method in brief: as §1
# HARA = system: HARA
# Method in brief: as §1
# HCC-44 = system: HCC-44
# Method in brief: as §1
# LK-2 = system: LK-2
# Method in brief: as §1
# LU99A = system: LU99A
# Method in brief: as §1
# NCI-H1650 = system: NCI-H1650
# Method in brief: as §1
# NCI-H1734 = system: NCI-H1734
# Method in brief: as §1
# NCI-H1755 = system: NCI-H1755
# Method in brief: as §1
# NCI-H1792 = system: NCI-H1792
# Method in brief: as §1
# NCI-H1993 = system: NCI-H1993
# Method in brief: as §1
# NCI-H2405 = system: NCI-H2405
# Method in brief: as §1
# NCI-H358 = system: NCI-H358
# Method in brief: as §1
# NCI-H460 = system: NCI-H460
# Method in brief: as §1
# NCI-H596 = system: NCI-H596
# Method in brief: as §1
# NCI-H647 = system: NCI-H647
# Method in brief: as §1
# RERF-LC-KJ = system: RERF-LC-KJ
# Method in brief: as §1
structure (smiles),measurement,setting,value
CCNC(=O)c1noc(-c2cc(C(C)C)c(O)cc2O)c1-c1ccc(CN2CCOCC2)cc1 [Luminespib] + CS(=O)(=O)CCNCc1ccc(-c2ccc3ncnc(Nc4ccc(OCc5cccc(F)c5)c(Cl)c4)c3c2)o1 [Lapatinib] (partner 2 µM),relative viability,A-427; first compound 0.002 µM,1.08
same,relative viability,A-427; first compound 0.006325 µM,1.02
same,relative viability,A-427; first compound 0.02 µM,0.771
same,relative viability,A-427; first compound 0.06325 µM,1.04
same,relative viability,A-427; first compound 0.2 µM,0.975
same,relative viability,COR-L 105; first compound 0.002 µM,0.363
same,relative viability,COR-L 105; first compound 0.006325 µM,0.354
same,relative viability,COR-L 105; first compound 0.02 µM,0.283
same,relative viability,COR-L 105; first compound 0.06325 µM,0.266
same,relative viability,COR-L 105; first compound 0.2 µM,0.302
same,relative viability,EKVX; first compound 0.002 µM,0.183
same,relative viability,EKVX; first compound 0.006325 µM,0.228
same,relative viability,EKVX; first compound 0.02 µM,0.175
same,relative viability,EKVX; first compound 0.06325 µM,0.158
same,relative viability,EKVX; first compound 0.2 µM,0.0973
same,relative viability,EMC-BAC-2; first compound 0.002 µM,0.942
same,relative viability,EMC-BAC-2; first compound 0.006325 µM,0.84
same,relative viability,EMC-BAC-2; first compound 0.02 µM,0.597
same,relative viability,EMC-BAC-2; first compound 0.06325 µM,0.853
same,relative viability,EMC-BAC-2; first compound 0.2 µM,0.781
same,relative viability,EPLC-272H; first compound 0.006325 µM,0.861
same,relative viability,EPLC-272H; first compound 0.02 µM,0.563
same,relative viability,EPLC-272H; first compound 0.06325 µM,0.725
same,relative viability,EPLC-272H; first compound 0.2 µM,0.153
same,relative viability,HARA; first compound 0.002 µM,0.704
same,relative viability,HARA; first compound 0.006325 µM,0.709
same,relative viability,HARA; first compound 0.02 µM,0.465
same,relative viability,HARA; first compound 0.06325 µM,0.335
same,relative viability,HARA; first compound 0.2 µM,0.259
same,relative viability,HCC-44; first compound 0.002 µM,0.975
same,relative viability,HCC-44; first compound 0.006325 µM,1.08
same,relative viability,HCC-44; first compound 0.02 µM,1.18
same,relative viability,HCC-44; first compound 0.06325 µM,0.161
same,relative viability,HCC-44; first compound 0.2 µM,0.159
same,relative viability,LK-2; first compound 0.002 µM,0.849
same,relative viability,LK-2; first compound 0.006325 µM,0.941
same,relative viability,LK-2; first compound 0.02 µM,0.545
same,relative viability,LK-2; first compound 0.06325 µM,0.252
same,relative viability,LK-2; first compound 0.2 µM,0.204
same,relative viability,LU99A; first compound 0.002 µM,1.11
same,relative viability,LU99A; first compound 0.006325 µM,0.939
same,relative viability,LU99A; first compound 0.02 µM,0.518
same,relative viability,LU99A; first compound 0.06325 µM,0.127
same,relative viability,LU99A; first compound 0.2 µM,0.11
same,relative viability,NCI-H1650; first compound 0.002 µM,0.761
same,relative viability,NCI-H1650; first compound 0.006325 µM,0.642
same,relative viability,NCI-H1650; first compound 0.02 µM,0.177
same,relative viability,NCI-H1650; first compound 0.06325 µM,0.145
same,relative viability,NCI-H1650; first compound 0.2 µM,0.176
same,relative viability,NCI-H1734; first compound 0.002 µM,1.08
same,relative viability,NCI-H1734; first compound 0.006325 µM,1
same,relative viability,NCI-H1734; first compound 0.02 µM,0.675
same,relative viability,NCI-H1734; first compound 0.06325 µM,0.123
same,relative viability,NCI-H1734; first compound 0.2 µM,0.132
same,relative viability,NCI-H1755; first compound 0.002 µM,1.09
same,relative viability,NCI-H1755; first compound 0.006325 µM,0.97
same,relative viability,NCI-H1755; first compound 0.02 µM,1.07
same,relative viability,NCI-H1755; first compound 0.06325 µM,0.502
same,relative viability,NCI-H1755; first compound 0.2 µM,0.176
same,relative viability,NCI-H1792; first compound 0.002 µM,0.855
same,relative viability,NCI-H1792; first compound 0.006325 µM,0.778
same,relative viability,NCI-H1792; first compound 0.02 µM,0.717
same,relative viability,NCI-H1792; first compound 0.06325 µM,0.474
same,relative viability,NCI-H1792; first compound 0.2 µM,0.587
same,relative viability,NCI-H1993; first compound 0.002 µM,0.874
same,relative viability,NCI-H1993; first compound 0.006325 µM,0.864
same,relative viability,NCI-H1993; first compound 0.02 µM,0.654
same,relative viability,NCI-H1993; first compound 0.06325 µM,0.491
same,relative viability,NCI-H1993; first compound 0.2 µM,0.418
same,relative viability,NCI-H2405; first compound 0.002 µM,1.17
same,relative viability,NCI-H2405; first compound 0.006325 µM,0.876
same,relative viability,NCI-H2405; first compound 0.02 µM,0.869
same,relative viability,NCI-H2405; first compound 0.06325 µM,0.144
same,relative viability,NCI-H2405; first compound 0.2 µM,0.125
same,relative viability,NCI-H358; first compound 0.002 µM,0.503
same,relative viability,NCI-H358; first compound 0.006325 µM,0.446
same,relative viability,NCI-H358; first compound 0.02 µM,0.354
same,relative viability,NCI-H358; first compound 0.06325 µM,0.132
same,relative viability,NCI-H358; first compound 0.2 µM,0.14
same,relative viability,NCI-H460; first compound 0.002 µM,1.11
same,relative viability,NCI-H460; first compound 0.006325 µM,0.871
same,relative viability,NCI-H460; first compound 0.02 µM,0.0465
same,relative viability,NCI-H460; first compound 0.06325 µM,0.0095
same,relative viability,NCI-H460; first compound 0.2 µM,0.0127
same,relative viability,NCI-H596; first compound 0.002 µM,1.18
same,relative viability,NCI-H596; first compound 0.006325 µM,0.99
same,relative viability,NCI-H596; first compound 0.06325 µM,0.933
same,relative viability,NCI-H596; first compound 0.2 µM,0.969
same,relative viability,NCI-H647; first compound 0.002 µM,1.2
same,relative viability,NCI-H647; first compound 0.006325 µM,1.16
same,relative viability,NCI-H647; first compound 0.02 µM,0.359
same,relative viability,NCI-H647; first compound 0.06325 µM,0.0578
same,relative viability,NCI-H647; first compound 0.2 µM,0.0724
same,relative viability,RERF-LC-KJ; first compound 0.002 µM,0.825
same,relative viability,RERF-LC-KJ; first compound 0.006325 µM,0.812
same,relative viability,RERF-LC-KJ; first compound 0.02 µM,0.621
same,relative viability,RERF-LC-KJ; first compound 0.06325 µM,0.726
same,relative viability,RERF-LC-KJ; first compound 0.2 µM,0.294
